# Test results from patent publication US5869494A, “Uses for barbituric acid analogs” (priority 1997, dated 1999).
# Experiments:
# MT-4 cells = test: Toxicity to MT-4 cells; format: cell-based, human; conditions: drug doses of the HIV-1 test (75-125 μg/ml)
# Description: After 2 h at 37° C., treated and control HIV-1 samples were added to the indicator MT-4 cells (cultured human T cells) in the presence of 2 μg/ml POLYBRENE™ for 2 h. After washing, MT-4 cells were cultured in the presence of drug-treated or control (untreated) HIV-1. Cell viability of MT-4 cells was determined by the trypan blue dye exclusion method.
# breast tumor = test: Human tumor cloning system, breast tumors; format: cell-based; conditions: responsive = at least 50% inhibition of tumor colony formation
# Description: Through the initial work of Hamburger and Salmon (1977 a,b), it is possible to culture human tumors using a two-layer soft agar system. This culture system, called the human tumor cloning system, was initially utilized to select the most appropriate anticancer agent for an individual patient's tumor. […] In an in vitro-in vivo correlation study involving 800 patients retrospectively, it was determined that the true positive rate for this assay was 70%, while the true negative rate for the assay was 98% (Von Hoff et al., 1981). In a more recent prospective clinical trial of the cloning system involving 604 patients, the percent true positive for the assay was 64%, while the percent true negative for the assay was 86% (Von Hoff et al., 1983). […] This system was used to study the response of compound C1 for breast cancer and non-small cell lung carcinoma.
# Collection and preparation of tumor cells: After obtaining informed consent in accordance with federal and institutional guidelines, malignant effusions, ascites and bone marrow aspirates containing tumor cells as well as solid tumor specimens were collected from patients undergoing procedure carried out as a part of their diagnostic workup or as part of treatment for their disease. […] The viability of cell suspensions thus obtained was determined with trypan blue.
# Tumor cells to be cloned were suspended in 0.3% agar in enriched CMRL 1066 medium (Gibco, Grand Island, N.Y.) supplemented with 15% heat-inactivated horse serum, penicillin (100 units/ml), streptomycin (2 mg/ml) glutamine (2 mM), insulin (3 units/ml), asparagine (0.6 mg/ml), and HEPES buffer (2 mM). […] After an incubation period of 14 days, plates were removed and the number of colonies were counted in each plate. The number of colonies (defined as >50 cells) formed were compared in drug treated and untreated (control) plates and the percent colonies surviving at each drug dose tested was then calculated as a percentage of control. […]
# 786-0 = test: NCI tumor cell line screen (SRB assay); format: cell-based; set-up: activity: dose or concentration left out as unconfirmed; conditions: Homo sapiens, read-out: PERCENT GROWTH
# Description: (§1) The National Cancer Institute carried out the studies at the direction of the present inventor.
# (§2) In the tests, the National Cancer Institute used the SRB (sulforhodamine B) assay as described by Skehan et al., (Journal of the National Cancer Institute, 82:13, Jul. 4, 1990, 1107-1112). Briefly, the assay is as follows. TCA-fixed cells were stained for 30 minutes with 0.4% (wt/vol) SRB dissolved in 1% acetic acid. At the end of the staining period, SRB was removed and cultures were quickly rinsed four times with 1% acetic acid to remove unbound dye. The acetic acid was poured directly into the culture wells from a beaker. […] Residual wash solution was removed by sharply flicking plates over a sink, which ensured the complete removal of rinsing solution. […] After being rinsed, the cultures were air dried until no standing moisture was visible. Bound dye was solubilized with 10 mM unbuffered Tris base (pH 10.5) for 5 minutes on a gyratory shaker.
# (§3) Optical density (OD) was read in either a UVmax microtiter plate reader (Molecular Devices, Menlo Park, Calif.) or a Beckman DU-70 spectrophotometer. For maximum sensitivity, OD was measured at 564 nm. Because readings were linear with dye concentrations only below 1.8 OD units, however, suboptimal wavelengths were generally used, so that all samples in an experiment remained within the linear OD range. With most cell lines, wavelengths of approximately 490-530 nm worked well for this purpose.
# (§4) Nine different non-small cell lung carcinoma cell lines, six different colon carcinoma cell lines, six different CNS (central nervous system) carcinoma cell lines, seven different melanoma cell lines, six different ovarian carcinoma cell lines, and eight different renal carcinoma cell lines were tested.
# HT29 = test: NCI tumor cell line screen (SRB assay); format: cell-based; set-up: activity: dose or concentration left out as unconfirmed; conditions: Homo sapiens, HT-29, read-out: PERCENT GROWTH
# Description: as §1, §2, §3, §4
# SNB-19 = test: NCI tumor cell line screen (SRB assay); format: cell-based; set-up: activity: dose or concentration left out as unconfirmed; conditions: Homo sapiens, read-out: PERCENT GROWTH
# Description: as §1, §2, §3, §4
# PK-10 = test: NCI tumor cell line screen (SRB assay); format: cell-based; set-up: activity: dose or concentration left out as unconfirmed; conditions: Homo sapiens, read-out: PERCENT GROWTH
# Description: as §1, §2, §3, §4
# [1] = In vivo toxicity, repeat oral dose; set-up: species or system BALB/c mice; conditions: for mortality: group of three mice
# Description: In preliminary repeat dose studies, a suspension of C1 in polyethylene glycol (C1 is mixed with a 2.5% solution of polyethylene glycol and homogenized in a sterile dounce homogenizer until it flows freely through a 22×11/2" with 11/4 mm ball feeding needle) was administered orally to a group of three BALB/c mice.
structure (smiles),measurement,setting,value
"CCCCN1C(=O)CC(=O)N(CCCC)C1=S [Compound C1, 4,6(1H, 5H)-pyrimidinedione, 1,3-dibutyldihydro-2-thioxo]",toxicity to the MT-4 cells,MT-4 cells,not toxic to the MT-4 cells
same,# responsive tumors/total # evaluated,breast tumor; 75 μg/ml,3/8
same,# responsive tumors/total # evaluated,breast tumor; 100 μg/ml,4/8
same,# responsive tumors/total # evaluated,breast tumor; 125 μg/ml,6/8
same,activity,786-0; 10^-3.0 Molar,-100%
same,activity at 100 µM,786-0; 10^-4.0 Molar,87%
same,activity at 10 µM,786-0; 10^-5.0 Molar,115%
same,activity at 1 µM,786-0; 10^-6.0 Molar,82%
same,activity,HT29; 10^-3.0 Molar,-96%
same,activity at 100 µM,HT29; 10^-4.0 Molar,76%
same,activity at 1 µM,HT29; 10^-6.0 Molar,103%
same,activity at 0.1 µM,HT29; 10^-7.0 Molar,102%
same,activity,SNB-19; 10^-3.0 Molar,-54%
same,activity at 100 µM,SNB-19; 10^-4.0 Molar,90%
same,activity at 10 µM,SNB-19; 10^-5.0 Molar,109%
same,activity at 1 µM,SNB-19; 10^-6.0 Molar,99%
same,activity at 0.1 µM,SNB-19; 10^-7.0 Molar,105%
same,activity,PK-10,-19%
same,activity at 0.1 µM,PK-10,94%
same,activity at 1 µM,PK-10,94%
same,activity at 10 µM,PK-10,98%
same,activity at 100 µM,PK-10,74%
same,tolerability and survival,"[1]; 400 mg/kg daily oral, 10 days",easily tolerated and all animals survived the treatment
same,mortality,[1]; 800 mg/kg daily oral,one animal died on day three and another died on day 10
same,mortality,[1]; 1000 mg/kg daily oral,"one animal died on day 2, another on day 5 and a third animal died on day 10"
same,mortality,[1]; 1200 mg/kg daily oral,all animals died on day 3
